Data: PMC10942122 (Science Advances, 2024)
Where “and” joins values, the source holds several entries; their conditions need not be identical. Identical values can stand only once.

Key:
Mtb H37Rv WT [1] = details: cited from earlier work
PptT [2] = target: T1, PptT (Mycobacterium tuberculosis, UniProt O33336); assay: FP-based PptT enzyme assay; assay type: biochemical
T1 sequence (O33336 1-227): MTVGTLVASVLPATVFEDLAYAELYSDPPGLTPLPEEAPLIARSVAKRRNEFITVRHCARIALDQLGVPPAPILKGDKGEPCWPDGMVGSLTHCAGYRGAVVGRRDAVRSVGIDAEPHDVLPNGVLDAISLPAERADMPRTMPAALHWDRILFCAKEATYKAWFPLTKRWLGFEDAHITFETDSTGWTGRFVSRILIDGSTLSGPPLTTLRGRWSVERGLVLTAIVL

PptT [3] = target: T1, PptT; assay: BpsA assay of PptT activity with native CoA; assay type: biochemical
Mtb H37Rv WT [4] = assay type: cell-based, Mycobacterium tuberculosis
[5] = tested on: Mtb pptT cKD -ATc (PptT depleted); assay type: cell-based, Mycobacterium tuberculosis; details: PptT depleted by withholding ATc
Mtb pptT cKD +ATc = assay: microbe, parasite or virus in culture; assay type: cell-based; details: Mycobacterium tuberculosis, read-out: MIC90 PptT KD +ATc
Mtb pptH KO = assay: Minimal inhibitory concentration determination, pptH KO; assay type: cell-based; details: Mycobacterium tuberculosis, read-out: MIC90 ΔPptH
Mtb DHFR = target: T2, Mtb DHFR (Mycobacterium tuberculosis, UniProt P9WNX1); assay: Dihydrofolate reductase; assay type: biochemical
T2 sequence (P9WNX1 1-161): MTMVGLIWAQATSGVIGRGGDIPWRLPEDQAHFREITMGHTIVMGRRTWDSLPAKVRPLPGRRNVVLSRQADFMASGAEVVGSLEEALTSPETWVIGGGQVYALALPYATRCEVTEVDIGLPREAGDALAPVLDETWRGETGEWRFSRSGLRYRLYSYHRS

PptT [6] = target: T1, PptT; assay: Differential scanning fluorimetry thermal shift assay; assay type: binding; details: for ΔTm of CoA-preincubated PptT: 50 μM Ralt-1, Hepes buffer without arginine/glutamate
CoA-saturated PptT = target: T3, CoA-saturated PptT (Mycobacterium tuberculosis, UniProt O33336); assay: biochemical; assay type: binding
T3 sequence (O33336 1-227): T1 sequence (O33336 1-227)

PptT [7] = target: T1, PptT; assay: Kinetic mechanism assay for N-ACP PKS13 substrate; assay type: biochemical
PptT [8] = target: T1, PptT; assay: Preincubation and rapid dilution assay; assay type: biochemical; details: 10 μM each preincubated, 500-fold dilution
Mtb H37Rv = details: 10 μM, 24 hours, Mtb on filters

Row | SMILES | MIC90 against Mtb (Mtb H37Rv WT [1]) [µM] | maximum inhibition (PptT [2]; FP assay, BDP-CoA, normalized) [%] | IC50 (PptT [2]; IC50 PptT, FP assay at 100 nM PptT enzyme concentration) | IC50 (PptT [2]; IC50 PptT, FP assay, fresh/resupplied powder or purity-checked sample) [µM] | IC50 (PptT [2]; IC50 against rPptT) [µM] | Hill slope (h) (PptT [2]; concentration-response curve, FP assay) | IC50 (PptT [3]) [µM] | MIC90 H37Rv (Mtb H37Rv WT [4]) [µM] | whole-cell activity / target profile against Mtb (in words) (Mtb H37Rv WT [4]) | MIC90 PptT KD -ATc [5] [µM] | MIC (Mtb pptT cKD +ATc) [µM] | MIC (Mtb pptH KO) [µM] | IC50 (Mtb DHFR) [µM] | ΔTm of CoA-preincubated PptT (PptT [6]; 1 mM CoA) [°C] | ΔTm of CoA-preincubated PptT (PptT [6]; 2 mM CoA) [°C] | gain in melting temperature (Tm) of PptT (PptT [6]; 1:10 molar ratio of protein to Ralt-1) [°C] | Kd (CoA-saturated PptT) [µM] | mode of inhibition with respect to the ACP substrate (PptT [7]) | reversibility of binding to PptT (PptT [8]) | % Uptake from media (Mtb H37Rv) [%]
1 | CN(Cc1cnc2nc(N)nc(N)c2n1)c1ccc(C(=O)N[C@@H](CCC(=O)O)C(=O)O)cc1 [Methotrexate] | > 100000 |  |  |  |  |  |  |  |  |  |  |  |  |  |  |  |  |  |  | 
2 | Cc1nc2ccc(CN(C)c3ccc(C(=O)N[C@@H](CCC(=O)O)C(=O)O)s3)cc2c(=O)[nH]1 [Ralt-1, Raltitrexed] |  | ≥ 100 | 0.07 µM and 0.065 µM | ~0.05 | 0.73 | 1.5 | 0.25 | >100 | no activity | >100 | > 100 | > 100 | 8.5 | 4 | 3 | 15 | 0.29 ± 0.029 | noncompetitive mode of inhibition | readily reversible | 1.2 ± 0.1
